Assay results as given in patent publication US20080175794A1, “Substituted Pyridazinyl- and Pyrimidinyl-Quinolin-4-Ylamine Analogues” (NEUROGEN CORPORATION, priority 2005, published 2008).

target: T1, human capsaicin receptor (Homo sapiens, UniProt Q8NER1); assay: Calcium mobilization assay, determination of antagonist activity (Example 6); format: cell-based; details: Table III; assay provided in Example 6; cells expressing human capsaicin receptor, capsaicin at EC50
T1 construct: expressed in transfected cells
T1 sequence (Q8NER1 whole entry): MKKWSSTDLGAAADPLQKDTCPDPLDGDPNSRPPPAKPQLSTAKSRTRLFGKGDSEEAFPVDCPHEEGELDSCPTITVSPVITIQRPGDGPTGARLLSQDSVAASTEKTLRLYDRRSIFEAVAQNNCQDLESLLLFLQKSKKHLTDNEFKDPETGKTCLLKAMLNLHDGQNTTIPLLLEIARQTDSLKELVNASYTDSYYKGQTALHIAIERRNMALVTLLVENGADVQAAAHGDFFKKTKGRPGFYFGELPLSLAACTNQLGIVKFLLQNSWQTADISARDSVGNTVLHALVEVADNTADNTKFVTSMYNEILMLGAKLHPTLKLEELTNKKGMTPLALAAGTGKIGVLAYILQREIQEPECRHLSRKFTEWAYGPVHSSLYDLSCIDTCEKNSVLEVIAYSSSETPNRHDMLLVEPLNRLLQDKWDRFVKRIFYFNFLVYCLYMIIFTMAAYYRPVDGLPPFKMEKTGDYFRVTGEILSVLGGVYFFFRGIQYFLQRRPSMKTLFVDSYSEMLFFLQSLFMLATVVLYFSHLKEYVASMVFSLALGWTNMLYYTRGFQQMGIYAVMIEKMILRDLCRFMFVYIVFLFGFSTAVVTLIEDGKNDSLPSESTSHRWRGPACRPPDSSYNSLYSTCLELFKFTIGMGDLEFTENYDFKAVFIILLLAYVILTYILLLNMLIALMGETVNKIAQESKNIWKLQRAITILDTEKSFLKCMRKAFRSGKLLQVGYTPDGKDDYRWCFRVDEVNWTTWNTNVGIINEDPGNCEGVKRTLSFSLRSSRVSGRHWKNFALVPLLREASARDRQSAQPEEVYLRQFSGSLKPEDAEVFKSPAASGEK
Method: A cDNA encoding full length human capsaicin receptor (SEQ ID NO:1, 2 or 3 of U.S. Pat. No. 6,482,611) is subcloned in the plasmid pBK-CMV (Stratagene, La Jolla, Calif.) for recombinant expression in mammalian cells.
Human embryonic kidney (HEK293) cells are transfected with the pBK-CMV expression construct encoding the full length human capsaicin receptor using standard methods. The transfected cells are selected over two weeks in media containing G418 (400 μg/ml) to obtain a pool of stably transfected cells. Independent clones are isolated from this pool by limiting dilution to obtain clonal stable cell lines for use in subsequent experiments.
Cells transfected with expression plasmids (as described in Example 4) and thereby expressing human capsaicin receptor are seeded and grown to 70-90% confluency in FALCON black-walled, clear-bottomed 96-well plates (#3904, BECTON-DICKINSON, Franklin Lakes, N.J.). The culture medium is emptied from the 96 well plates and FLUO-3 AM calcium sensitive dye (Molecular Probes, Eugene, Oreg.) is added to each well (dye solution: 1 mg FLUO-3 AM, 440 μL DMSO and 440 μl 20% pluronic acid in DMSO, diluted 1:250 in Krebs-Ringer HEPES (KRH) buffer (25 mM HEPES, […], 0.96 mM NaH2PO4, 1 mM MgSO4, 2 mM CaCl2, 5 mM glucose, 1 mM probenecid, pH 7.4), 50 μl diluted solution per well). Plates are covered with aluminum foil and incubated at 37° C. for 1-2 hours in an environment containing 5% CO2. After the incubation, the dye is emptied from the plates, and the cells are washed once with KRH buffer, and resuspended in KRH buffer.
To measure the ability of a test compound to agonize or antagonize a calcium mobilization response in cells expressing capsaicin receptors to capsaicin or other vanilloid agonist, the EC50 of the agonist capsaicin is first determined. An additional 20 μl of KRH buffer and 1 μl DMSO is added to each well of cells, prepared as described above. 100 μl capsaicin in KRH buffer is automatically transferred by the FLIPR instrument to each well. Capsaicin-induced calcium mobilization is monitored using either FLUOROSKAN ASCENT (Labsystems; Franklin, Mass.) or FLIPR (fluorometric imaging plate reader system; Molecular Devices, Sunnyvale, Calif.) instruments. Data obtained between 30 and 60 seconds after agonist application are used to generate an 8-point concentration response curve, with final capsaicin concentrations of 1 nM to 3 μM. KALEIDAGRAPH software (Synergy Software, Reading, Pa.) is used to fit the data to the equation: […]
Test compounds are dissolved in DMSO, diluted in 20 μl KRH buffer so that the final concentration of test compounds in the assay well is between […] and 5 μM, and added to cells prepared as described above. The 96 well plates containing prepared cells and test compounds are incubated in the dark at room temperature for 0.5 to 6 hours. It is important that the incubation not continue beyond 6 hours. Just prior to determining the fluorescence response, 100 μl capsaicin in KRH buffer at twice the EC50 concentration determined as described above is automatically added by the FLIPR instrument to each well of the 96 well plate for a final sample volume of 200 μl and a final capsaicin concentration equal to the EC50. The final concentration of test compounds in the assay wells is between 1 μM and 5 μM. […] The concentration of antagonist required to provide a 50% decrease, relative to the response observed in the presence of capsaicin and without antagonist, is the IC50 for the antagonist, and is preferably below 1 micromolar, 100 nanomolar, 10 nanomolar or 1 nanomolar.

IC50, < 1000 nM:
O[C@H]1CCN(c2cc(C(F)(F)F)c(-c3cnc4c(Nc5ccc(C(F)(F)F)cn5)ccnc4n3)nn2)C1 [Compound 193]
FC(F)(F)c1cnc(Nc2ccnc3nc(-c4nnccc4C(F)(F)F)cnc23)cn1 [Compound 46, N-[5-(trifluoromethyl)-2-pyrazinyl]-3-[4-(trifluoromethyl)-3-pyridazinyl]pyrido[2,3-b]pyrazin-8-amine]
CC1CCCN1c1cc(C(F)(F)F)c(-c2cnc3c(Nc4ccc(C(F)(F)F)cn4)ccnc3n2)nn1 (centres unmarked) [Compound 129, 3-[6-(2-methylpyrrolidin-1-yl)-4-(trifluoromethyl)pyridazin-3-yl]-N-[5-(trifluoromethyl)pyridin-2-yl]pyrido[2,3-b]pyrazin-8-amine]
CCCC(C)Nc1cc(C(F)(F)F)c(-c2cnc3c(Nc4ccc(C(F)(F)F)cn4)ccnc3n2)nn1 (centres unmarked) [Compound 158, 3-{6-[(1-methylbutyl)amino]-4-(trifluoromethyl)pyridazin-3-yl}-N-[5-(trifluoromethyl)pyridin-2-yl]pyrido[2,3-b]pyrazin-8-amine]
CN(CC#N)c1cc(C(F)(F)F)c(-c2cnc3c(Nc4ccc(C(F)(F)F)cn4)ccnc3n2)nn1 [Compound 124, {methyl[5-(trifluoromethyl)-6-(8-{[5-(trifluoromethyl)pyridin-2-yl]amino}pyrido-[2,3-b]pyrazin-3-yl)pyridazin-3-yl]amino}acetonitrile]
COCC(C)Nc1cc(C(F)(F)F)c(-c2cnc3c(Nc4ccc(C(F)(F)F)cn4)ccnc3n2)nn1 (centres unmarked) [Compound 165, 3-{6-[(2-methoxy-1-methylethyl)amino]-4-(trifluoromethyl)pyridazin-3-yl}-N-[5-(trifluoromethyl)pyridin-2-yl]pyrido[2,3-b]pyrazin-8-amine]
CCCCN(C)c1cc(C(F)(F)F)c(-c2cnc3c(Nc4ccc(C(F)(F)F)cn4)ccnc3n2)nn1 [Compound 122, 3-{6-[butyl(methyl)amino]-4-(trifluoromethyl)pyridazin-3-yl}-N-[5-(trifluoromethyl)pyridin-2-yl]pyrido[2,3-b]pyrazin-8-amine]
CC(CO)Nc1cc(C(F)(F)F)c(-c2cnc3c(Nc4ccc(C(F)(F)F)cn4)ccnc3n2)nn1 (centres unmarked) [Compound 117, 2-{[5-(trifluoromethyl)-6-(8-{[5-(trifluoromethyl)pyridin-2-yl]amino}pyrido[2,3-b]pyrazin-3-yl)pyridazin-3-yl]amino}propan-1-ol]
CN(C)C(=O)CNc1cc(C(F)(F)F)c(-c2cnc3c(Nc4ccc(C(F)(F)F)cn4)ccnc3n2)nn1 [Compound 167, N,N-dimethyl-N2-[5-(trifluoromethyl)-6-(8-{[5-(trifluoromethyl)pyridin-2-yl]amino}pyrido[2,3-b]pyrazin-3-yl)pyridazin-3-yl]glycinamide]
CN(C)C1CCN(c2cc(C(F)(F)F)c(-c3cnc4c(Nc5ccc(C(F)(F)F)cn5)ccnc4n3)nn2)CC1 [Compound 96, 3-{6-[4-(dimethylamino)piperidin-1-yl]-4-(trifluoromethyl)pyridazin-3-yl}-N-[5-(trifluoromethyl)pyridin-2-yl]pyrido[2,3-b]pyrazin-8-amine]
FC(F)(F)CNc1cc(C(F)(F)F)c(-c2cnc3c(Nc4ccc(C(F)(F)F)cn4)ccnc3n2)nn1 [Compound 155, 3-{6-[(2,2,2-trifluoroethyl)amino]-4-(trifluoromethyl)pyridazin-3-yl}-N-[5-(trifluoromethyl)pyridin-2-yl]pyrido[2,3-b]pyrazin-8-amine]
CN(CCO)c1cc(C(F)(F)F)c(-c2cnc3c(Nc4ccc(C(F)(F)F)cn4)ccnc3n2)nn1 [Compound 135, 2-{methyl[5-(trifluoromethyl)-6-(8-{[5-(trifluoromethyl)pyridin-2-yl]amino}pyrido[2,3-b]pyrazin-3-yl)pyridazin-3-yl]amino}ethanol]
CCC(O)CNc1cc(C(F)(F)F)c(-c2cnc3c(Nc4ccc(C(F)(F)F)cn4)ccnc3n2)nn1 (centres unmarked) [Compound 173, 1-{[5-(trifluoromethyl)-6-(8{[5-(trifluoromethyl)pyridin-2-yl]amino}pyrido[2,3-b]pyrazin-3-yl)pyridazin-3-yl]amino}butan-2-ol]
CC(=O)c1cc(C(F)(F)F)c(-c2cnc3c(Nc4ccc(C(F)(F)F)cn4)ccnc3n2)nn1 [Compound 68, 1-[5-(trifluoromethyl)-6-(8-{[5-(trifluoromethyl)pyridin-2-yl]amino}pyrido[2,3-b]pyrazin-3-yl)pyridazin-3-yl]ethanone]
CC(C)N(C)c1cc(C(F)(F)F)c(-c2cnc3c(Nc4ccc(C(F)(F)F)cn4)ccnc3n2)nn1 [Compound 185, 3-{6-[isopropyl(methyl)amino]-4-(trifluoromethyl)pyridazin-3-yl}-N-[5-(trifluoromethyl)pyridin-2-yl]pyrido[2,3-b]pyrazin-8-amine]
COCCNc1cc(C(F)(F)F)c(-c2cnc3c(Nc4ccc(C(F)(F)F)cn4)ccnc3n2)nn1 [Compound 163, 3-{6-[(2-methoxyethyl)amino]-4-(trifluoromethyl)pyridazin-3-yl}-N-[5-(trifluoromethyl)pyridin-2-yl]pyrido[2,3-b]pyrazin-8-amine]
FC(F)(F)c1ccc(Nc2ccnc3nc(-c4nnc(NCc5cccnc5)cc4C(F)(F)F)cnc23)nc1 [Compound 78, 3-{6-[(pyridin-3-ylmethyl)amino]-4-(trifluoromethyl)pyridazin-3-yl}-N-[5-(trifluoromethyl)pyridin-2-yl]pyrido[2,3-b]pyrazin-8-amine]
CN1CCN(c2cc(C(F)(F)F)c(-c3cnc4c(Nc5ccc(C(F)(F)F)cn5)ccnc4n3)nn2)CC1 [Compound 145, 3-[6-(4-methylpiperazin-1-yl)-4-(trifluoromethyl)pyridazin-3-yl]-N-[5-(trifluoromethyl)pyridin-2-yl]pyrido[2,3-b]pyrazin-8-amine]
CCN(c1cc(C(F)(F)F)c(-c2cnc3c(Nc4ccc(C(F)(F)F)cn4)ccnc3n2)nn1)C(C)C [Compound 128, 3-{6-[ethyl(isopropyl)amino]-4-(trifluoromethyl)pyridazin-3-yl}-N-[5-(trifluoromethyl)pyridin-2-yl]pyrido[2,3-b]pyrazin-8-amine]
CN(CC(=O)O)c1cc(C(F)(F)F)c(-c2cnc3c(Nc4ccc(C(F)(F)F)cn4)ccnc3n2)nn1 [Compound 56, N-methyl-N-[5-(trifluoromethyl)-6-(8-{[5-(trifluoromethyl)pyridin-2-yl]amino}pyrido[2,3-b]pyrazin-3-yl)pyridazin-3-yl]glycine]
CN1CCCC1CCOc1cc(C(F)(F)F)c(-c2cnc3c(Nc4ccc(C(F)(F)F)cn4)ccnc3n2)nn1 (centres unmarked) [Compound 65, 3-{6-[2-(1-methylpyrrolidin-2-yl)ethoxy]-4-(trifluoromethyl)pyridazin-3-yl}-N-[5-(trifluoromethyl)pyridin-2-yl]pyrido[2,3-b]pyrazin-8-amine]
CCCN(C)c1cc(C(F)(F)F)c(-c2cnc3c(Nc4ccc(C(F)(F)F)cn4)ccnc3n2)nn1 [Compound 121, 3-{6-[methyl(propyl)amino]-4-(trifluoromethyl)pyridazin-3-yl}-N-[5-(trifluoromethyl)pyridin-2-yl]pyrido[2,3-b]pyrazin-8-amine]
OC1CCN(c2cc(C(F)(F)F)c(-c3cnc4c(Nc5ccc(C(F)(F)F)cn5)ccnc4n3)nn2)CC1 [Compound 196, 1-[5-(trifluoromethyl)-6-(8-{[5-(trifluoromethyl)pyridin-2-yl]amino}pyrido[2,3-b]pyrazin-3-yl)pyridazin-3-yl]piperidin-4-ol]
